Calls of active or inactive are those of the source.
What was measured:
Type in all cases: functional, cell-based
[1] = system: iNKT; test: Release of IL4 and IFN-gamma from human iNKT cells stimulated by C1R cell expressing human CD1d at 20 ug/ml
[2] = system: iNKT; test: Release of IL4 and IFN-gamma from human iNKT cells stimulated by C1R cell expressing human CD1d at 5 ug/ml
[3] = system: iNKT; test: Release of IL2 from mouse iNKT hybridoma stimulated by bone marrow-derived mouse DC at 0.2 ug/ml

Measured: Activity

CCCCCCCCCCCCC/C=C/[C@@H](O)[C@H](CO[C@@H]1O[C@H](CO)[C@@H](O[C@@H]2O[C@H](CO)[C@H](O)[C@H](O[C@H]3O[C@H](CO)[C@H](O)[C@H](O)[C@H]3O)[C@H]2O)[C@H](O)[C@H]1O)NC(=O)CCCCCCCCCCCCCCCCCCCCCCCCC
active: all assays above

Source: ChEMBL document CHEMBL1146963, “Synthesis and biological evaluation of alpha-galactosylceramide (KRN7000) and isoglobotrihexosylceramide (iGb3)” (Bioorg Med Chem Lett, 2006)
